Results as given in BindingDB's records for doi:10.1016/j.bmcl.2018.09.032 (Shionogi, 2018).

Assay: Transrepression of RORgammat in anti-CD3/CD28 stimulated human PBMC derived CD4-positive T cells assessed as suppression of T cell differentiation to Th17 cells by measuring reduction in IL-17A level after 7 days by flow cytometry analysis

Row | Structure (SMILES) | IC50 [nM]
1 | CCS(=O)(=O)c1ccc(CC(=O)Nc2ccc(C(C)(C)C(=O)Nc3ccc(F)cc3F)c(F)c2)cc1 | 13
2 | CCS(=O)(=O)c1ccc(CC(=O)Nc2ccc(C(C)(C)C(=O)Nc3ccc(F)cc3F)cc2)cc1 | 36
